# Experiments:
# [1] = in-vitro skin permeation of propranolol from TMAD (Valia-Chien diffusion cell, with skin); format: in vitro ADME; details: delivered from TMAD
# Experimental: (§1) Both in-vitro release and skin permeation studies can then be conducted by mounting the device (with or without skin) onto a Valia-Chien diffusion cell at 37° C. In-vivo studies can be conducted by placing the patch on the pinna (ear) of a rabbit and taking blood samples which can be analyzed for propranolol (results on the attached sheets).
# In this case, the enhancer laminate would be fabricated by combining an aliphatic alcohol with adhesive in a 1.25:10 ratio. The enhancer laminate would then be solvent cast and laminated as in Example 1. The devices can then be evaluated in-vitro and in-vivo. (results shown on the attached sheets).
# [2] = in-vitro release of propranolol from multilaminate transdermal device (Valia-Chien diffusion cell, without skin); format: physicochemical; details: for RELEASE RATE OF PROPRANOLOL: Example 2, SPE-m-TAD
# Experimental: as §1
# The release rate of drug from the SPE-m-TAD can be changed by the alteration of the drug load in the outer drug laminate.
# [3] = in-vivo plasma propranolol after topical application of TMAD on inner pinna of rabbit; details: FIG. A-7, rabbits
# Experimental: as §1
smiles,measurement,setting,value
"CC(C)NCC(O)COc1cccc2ccccc12 (racemic) [propranolol, Propranolol]",enhancement in skin permeation rate of propranolol by alkyl alcohols,"[1]; FIG. A-4, dependence on alkyl chain length n of alcohols",The rate of skin permeation increases as increasing the alkyl chain length of the alcohols and reaches the maximum level at n=12~14
same,enhancement in skin permeation rate of propranolol by alkanoic acids,"[1]; FIG. A-5, dependence on alkyl chain length n of acids",The rate of skin permeation shows a sinoidal dependence on the alkyl chain length of the acids and with the maximum rates at n=3 and 16
same,enhancement in skin permeation rate of propranolol by esters of Lauric Acid (n=12),"[1]; FIG. A-6, dependence on alkyl chain length n of esters",The rate of skin permeation increases first and then levels off as increasging the alkyl chain length of the esters and reaches the maximum level at n=2
same,RELEASE RATE OF PROPRANOLOL,[2]; propranolol drug load in outer drug laminate 3%,48.1 ug cm^-2 hr^-1
same,RELEASE RATE OF PROPRANOLOL,[2]; propranolol drug load in outer drug laminate 5%,49.9 ug cm^-2 hr^-1
same,RELEASE RATE OF PROPRANOLOL,[2]; propranolol drug load in outer drug laminate 7%,52.2 ug cm^-2 hr^-1
same,RELEASE RATE OF PROPRANOLOL,[2]; propranolol drug load in outer drug laminate 20%,59.1 ug cm^-2 hr^-1
same,drug release kinetics,"[2]; FIG. A-2, only extremely small particle size (1.5 μm) propranolol crystals in outer laminate layer",Device-controlled zero-order drug release kinetics was achieved
same,"zero-order release profile of propranolol from TMAD, effect of skin permeation enhancers","[2]; FIG. A-3, various skin permeation enhancers in contact adhesive polymer coating",did not affect the zero-order release profile
same,overall release of propranolol from the device,"[2]; SPE-m-TAD, decreasing drug load in outer drug laminate, particle size 1.5 microns","can be reduced, while still maintaining zero-order release kinetics"
same,plasma concentration profiles of propranolol,[3]; 24-hr topical application of TMAD on inner pinna ear,long-acting plasma concentration profiles
same,"systemic bioavailability of propranolol, as shown by plasma levels",[3]; 24-hr topical application of TMAD with various skin permeation enhancers,"improved the systemic bioavailability, as shown by elevated constant plasma levels"

# Reference: patent publication US5045319A, “Transdermal dosage unit, system and process” (Rutgers, The State University of New Jersey, priority 1988, dated 1991)
